Reference: patent US6777193B1, “Methods for diagnostic and/or treatment of antiphospholipids antibodies-related diseases, and devices” (Escuela Nacional de Ciencias Biologicas, del Instituto …, priority 2000, dated 2004)

Tests used:
[1] = tested on: egg-yolk phosphatidylcholine:phosphatidate (2:1 molar ratio) liposomes; experiment: Stabilization of liposomal membranes (liposomal cytofluorometry, SSC/FSC); conditions: for concentration effective in stabilizing lipidic bilayers: blocks lipidic particles induced by chlorpromazine at 0.2 mM and 0.6 mM; for lipidic particles formation and liposomal aggregation, simultaneous incubation with chlorpromazine: liposomes incubated simultaneously with chlorpromazine and stabilizer drug; for reaction of stabilized liposomes with H308 monoclonal antibody: liposomes incubated with chlorpromazine and stabilizer drug
Description: In relation to the stabilization of membranes with drugs that avoid the formation of lipidic particles in liposomal model membranes or in cellular membranes, which in turn avoid the subsequent union of anti-lipidic particles antibodies, the studies were carried out with liposomal or cellular antigens using the cytofluorometry method. In a favorite modality this method includes the following steps:
A) A first step of incubation, in which the antigen suspension, liposomes or cells, are incubated with a drug that stabilizes its lipidic bilayers, this drug being used at a concentration of 0.1 up to 100 mM, the obtained mixture is incubated for 0.25 to 2 h at a temperature between 35 and 40° C.
These studies were carried out with a modification in the liposomal cytofluorometry method with liposomes made from egg-yolk phosphatidylcholine:phosphatidate (2:1 molar ratio) in Tris-NaCl buffer (10 mM, 1 mM) pH 7, containing 0.1 μmol of phosphatidate, and treated with 0.2 mM chlorpromazine to induce lipidic particles formation, as antigens.
Liposomal preparations were incubated for 30 min at room temperature and were used as antigens. The reaction of these stabilized liposomes with H308 monoclonal antibody was analyzed by the liposomal cytofluorometry method as was described in Example 2A, in a FACSCalibur Flow Cytometer equipped with a single 488 nm argon laser beam (Beckton Dickinson).
Relative size and/or liposomal aggregation were analyzed in the FSC channel and the granularity or liposomal bilayers complexity in the SSC channel. Analysis of 10,000 liposomes was made in a logarithmic mode with the following detectors: FSC in E00, with a detector compensation threshold of 52 V and SSC of 401 V (Baeza et al., op. cit., 1995). The obtained data were analyzed with the Cellquest program (Beckton Dickinson).

BALB/c female mice [2] = experiment: Induction of anti-lipidic particles antibodies and pathology in immunized/treated mice; assay type: in vivo, mouse; conditions: for pathology developed in BALB/c female mice: after immunization or treatment as in Examples 4A-4C; for immunized BALB/c female mice that produced anti-lipidic particles antibodies: intramuscular, chlorpromazine 3 mg/Kg or procainamide 10 mg/Kg each 24 hs for 2-months
Description: Ten, 2-months age, BALB/c female mice were immunized by intrasplenic injection of 100 μg of egg-yolk phosphatidylcholine:phosphatidate liposomes (2:1 molar ratio) in Tris-NaCl buffer (10 mM, 1 mM) pH 7, containing 0.1 μmol of phosphatidate, and treated with MnCl2 5 mM to induce lipidic particles formation. Intrasplenic immunization was repeated 2-weeks later by the method described by Nilsson et al. (op. cit. 1987). Additionally, BALB/c female mice were intraperitoneally injected with the same liposomes dose 2-weeks later, then they were boosted 4-times at 2-weeks intervals.
After seven days of the last immunization female mice were bled from the orbital sinus to analyze the presence of anti-lipidic particles antibodies in the obtained sera. Using this immunization procedure, 60% of the immunized BALB/c female mice produced anti-lipidic particles antibodies.
Ten, 2-months age, BALB/c female mice were immunized by intrasplenic injection of 100 μg of egg-yolk phosphatidylcholine:phosphatidate liposomes (2:1 molar ratio) in Tris-NaCl buffer (10 mM, 1 mM) pH 7, containing 0.1 μmol of phosphatidate, and treated with the lipidic particles inducer drug procainamide at a concentration of 8 mM. Immunization was carried out as it was indicated in Example 4. After seven days of the last immunization female mice were bled from the orbital sinus to analyze the presence of anti-lipidic particles antibodies in the obtained sera. Using this immunization procedure, 70% of the immunized BALB/c female mice produced anti-lipidic particles antibodies.
Ten, 2-months age, BALB/c female mice were immunized by intramuscular injection of the lipidic particles inducer drugs chlorpromazine or procainamide, using 3 mg/Kg, of body weight, for chlorpromazine and 10 mg/Kg, of body weight, for procainamide, each 24 hs, for 2-months. Drug doses were similar to those that are administered in the medical treatment of humans; in psychotic and maniacs dysfunctions for chlorpromazine and those that were used for the treatment of cardiac arrhythmias for procainamide.
After seven days of the last intramuscular injection female mice were bled from the orbital sinus to analyze the presence of anti-lipidic particles antibodies in the obtained sera. Using this immunization procedure, 50% of the immunized BALB/c female mice produced anti-lipidic particles antibodies.
Ten, 2-months age, BALB/c female mice were immunized by intraperitoneal injection of 1 μg of anti-lipidic particles H308 monoclonal antibody, each week, for 2-months. After seven days of the last intraperitoneal injection female mice were bled from the orbital sinus to analyze the presence of anti-lipidic particles antibodies in the obtained sera. […]

H308 monoclonal antibody = experiment: Inhibition of H308 monoclonal antibody by phosphorylated haptens (liposomal-ELISA); assay type: binding, mouse; conditions: for inhibition of H308 monoclonal antibody reaction with lipidic particles in liposomes: hapten 0.2 to 1.0 μmol
Description: Studies on inhibition of anti-lipidic particles antibodies were carried out using liposomes as antigens and the antigen-antibody reaction was analyzed by the liposomal-ELISA method, which includes the following steps:
A) A first step of addition and incubation, in which an effective quantity of an antigen suspension is added to each one of the wells of the ELISA microtiter plate. This microtiter plate is selected among those with a high lipidic antigens binding property and said microtiter plate is incubated between 25 to 30° C. for 0.25 to 2 h.
B) A second step of addition and incubation, in which an effective quantity of a blocking solution is added to each one of the wells of the ELISA microtiter plate with a high lipidic antigens binding property, and said microtiter plate being incubated at a temperature between 25 to 30° C. for 0.25 to 2 h.
C) A step of elimination of blocking solution, preferably by suction, avoiding that microtiter plate becomes dry when blocking solution is eliminated, because liposomal antigens can be damaged.
D) A step of inhibition of the antibody porter, in which the antibody porter is incubated with a chemical substance, or hapten, that will inhibit the active site that recognizes the antigen in the antibody porter.
E) A third step of addition and incubation, in which an effective quantity of the antibody porter inhibited by the hapten was quickly added, to avoid that microtiter plate becomes dry, to each one of the wells using an antibody porter dilution from 1:5 to 1:1000 into blocking solution. This microtiter plate being incubated for 0.25 to 2 h at a temperature between 25 to 30° C.
F) A first step of washing, in which the microtiter plate is washed with the blocking solution, preferably repeating 4-times and avoiding that microtiter plate becomes dry when eliminating the blocking solution.
G) A fourth step of addition and incubation, in which an effective quantity of a second antibody is added to each one of the wells of microtiter plate. This plate is incubated in the darkness for 0.25 to 2 h at a temperature between 25 to 30° C. Second antibody is selected preferably among antibodies from a different specie to that of the antibody porter and they can be anti-Fc of human IgG, IgA and IgM or of the animal in study, or antibodies anti-Fc of IgM or of IgG depending on the nature of the monoclonal antibody when this is the antibody porter. Second antibody is used in a final dilution into blocking solution between […] and 1:3500 and it is conjugated to an enzyme preferably to peroxidase.
H) A second step of washing, in which the microtiter plate is washed with the blocking solution, preferably repeating 4-times and avoiding that microtiter plate becomes dry when eliminating the blocking solution.
I) A fifth step of addition and incubation, in which an effective quantity of the peroxidase sustrates is added to each one of the wells and this microtiter plate is incubated for 0.1 to 0.5 h at a temperature between .35 and 40° C., stopping the peroxidase reaction by adding an effective quantity of sulfuric acid.
J) A step of analysis, in which microtiter plate is analyzed using a reading device for ELISA plates, preferably at 492 nm.
In a specific embodiment, the hapten solution is obtained dissolving hapten in a buffer solution at pH between 7.0 and 7.4, in a relationship from 0.1 to 10 mmoles of hapten per liter of buffer solution.
Costar microtiter plates, with 96 flat-bottom wells with a high lipidic antigens binding property (Costar Co. Cambrige, USA) were coated by the addition to each one of the wells of 100 μl of liposomes made from egg-yolk phosphatidylcholine:phosphatidate (2:1 molar ratio) in Tris-NaCl buffer (10 mM, 1 mM) pH 7, containing 0.1 μmol of phosphatidate, and treated with 5 mM CaCl2 to induce lipidic particles formation. Microtiter plates were incubated at room temperature for 1 h and they were blocked for 1 h at room temperature in a similar way as was described in Example 1. […]

Ag4 mouse myeloma cells [3] = experiment: Stabilization of cellular membranes (cytofluorometry); assay type: cell-based; conditions: chlorpromazine 0.2 mM plus stabilizer drug; for development of lipidic particles in Ag4 cellular membranes: 30 min
Description: The reaction of these stabilized Ag4 mouse myeloma cells with […] monoclonal antibody was analyzed by the cytofluorometry method in a FACSCalibur Flow Cytometer equipped with a single […] argon laser beam (Beckton Dickinson). Relative size and/or Ag4 mouse myeloma cells aggregation were analyzed in the FSC channel and the granularity or cellular membranes complexity in the SSC channel. Analysis of 10,000 […] mouse myeloma cells was made with the following detectors: FSC in […] in lineal mode with an amplifier gain of 2 V, with a detector compensation threshold of 52 V, and SSC of 250 V. The obtained data were analyzed with the Cellquest program (Beckton Dickinson).

[4] = tested on: egg-yolk phosphatidylcholine:phosphatidate (2:1 molar ratio) liposomes; experiment: Lipidic particles reversion in liposomes; conditions: chlorpromazine 0.2 mM for 30 min before stabilizer drug
Description: (§1) Examples 7 and 7A were repeated using as antigens egg-yolk phosphatidylcholine:phosphatidate (2:1 molar ratio) liposomes, in Tris-NaCl buffer (10 mM, 1 mM) pH 7, and containing 0.1 μmol of phosphatidate, or Ag4 mouse myeloma cells. […] Stabilizer drugs were used at the concentrations used in Example 7A.

[5] = tested on: egg-yolk phosphatidylcholine:phosphatidate (2:1 molar ratio) liposomes; experiment: Stabilization of liposomal membranes (liposomal cytofluorometry, SSC/FSC); conditions: without chlorpromazine
Ag4 mouse myeloma cells [6] = experiment: Lipidic particles reversion in cells; assay type: cell-based; conditions: chlorpromazine 0.2 mM for 30 min before stabilizer drug
Description: as §1

BALB/c female mice [7] = experiment: Treatment of the pathology induced by H308 monoclonal antibody in mice; assay type: in vivo, mouse; conditions: for therapeutically effective quantity: of body weight, BALB/c female mice given H308
Description: H308 monoclonal antibody was administered by intraperitoneal injection of 1 μg each week during two months to BALB/c female mice, and simultaneously the glycerolphosphorylcholine hapten was administered at 2.5 mg/Kg, of body weight, doses by intravenous injection each 24 hs, for 2-months.
Spermidine was administered, as chlorhydrate, in a dose of 1 mg/Kg, of body weight, by intraperitoneal injection each 24 hs, during two months.

With `CN(C)CCCN1c2ccccc2Sc2ccc(Cl)cc21` [chlorpromazine] the “increase in SSC and FSC values (lipidic particles and liposomal aggregation)” value ([1]; 0.2 mM) was 100 fold, the SSC values ([1]; graph B, FIG. 16, presence of lipidic particles) was “higher than 1000 units” and the “pathology developed in BALB/c female mice” value (BALB/c female mice [2]) was “development of a pathology similar to the human antiphospholipid syndrome secondary to systemic lupus erythematosus”. The “immunized BALB/c female mice that produced anti-lipidic particles antibodies” value (BALB/c female mice [2]) was 50%.
`NCCOP(=O)(O)O` [phosphorylethanolamine] was tested, and the “inhibition of H308 monoclonal antibody reaction with lipidic particles in liposomes” value (shortened to “inhibition … in liposomes”) (H308 monoclonal antibody) was “do not cause any inhibition”.
With `NC(COP(=O)(O)O)C(=O)O` (stereo not drawn) [phosphorylserine] the “inhibition … in liposomes” value (H308 monoclonal antibody) was “do not cause any inhibition”.
With `C[N+](C)(C)CCOP(=O)(O)O` [phosphorylcholine] the “absorbance at 492 nm of H308 immunoreaction” value (H308 monoclonal antibody; 0.6 μmoles of hapten) was 0.06 and the “inhibition in immunoreaction of H308 monoclonal antibody” value (H308 monoclonal antibody; 0.6 μmoles of hapten, with regard to reaction in absence of hapten) was 82%.
In the case of `CCN(CC)CCCC(C)Nc1ccnc2cc(Cl)ccc12` (stereo not drawn) [chloroquine], the “reaction of stabilized Ag4 cells with H308 monoclonal antibody” value (Ag4 mouse myeloma cells [3]) was “do not react with the H308 monoclonal antibody”, the “development of lipidic particles in Ag4 cellular membranes” value (Ag4 mouse myeloma cells [3]) was “do not develop lipidic particles with chlorpromazine” and the “reversion of lipidic particles and liposomal aggregation caused by chlorpromazine” value [4] was “reverted”. The “change in liposomal aggregation and liposomal bilayers complexity, stabilizer drug alone” value [5] was “do not produce any change”, the “concentration effective in stabilizing lipidic bilayers” value [1] was 0.1 µM and the “lipidic particles formation and liposomal aggregation, simultaneous incubation with chlorpromazine” value [1] was “there were not lipidic particles formation neither liposomal aggregation”. For the same molecule, the “reaction of stabilized liposomes with H308 monoclonal antibody” value [1] was “do not react with H308 monoclonal antibody”, the “reversion of lipidic particles and cellular aggregation caused by chlorpromazine” value (Ag4 mouse myeloma cells [6]) was “reverted” and the therapeutically effective quantity (BALB/c female mice [7]) was 2.5 mg/kg.
In the case of `CCN(CC)CCNC(=O)c1ccc(N)cc1` [procainamide], the “pathology developed in BALB/c female mice” value (BALB/c female mice [2]) was “development of a pathology similar to the human antiphospholipid syndrome secondary to systemic lupus erythematosus” and the “immunized BALB/c female mice that produced anti-lipidic particles antibodies” value (BALB/c female mice [2]) was 50%.
`N[C@@H](COP(=O)(O)OCC(O)CO)C(=O)O` (stereo partly drawn) [glycerolphosphorylserine] was tested, and the “inhibition … in liposomes” value (H308 monoclonal antibody) was “do not cause any inhibition”.
For `NCCCCNCCCN` [spermidine], the “reaction of stabilized Ag4 cells with H308 monoclonal antibody” value (Ag4 mouse myeloma cells [3]) was “do not react with the H308 monoclonal antibody”, the “development of lipidic particles in Ag4 cellular membranes” value (Ag4 mouse myeloma cells [3]) was “do not develop lipidic particles with chlorpromazine” and the “reversion of lipidic particles and liposomal aggregation caused by chlorpromazine” value [4] was “reverted”. The “change in liposomal aggregation and liposomal bilayers complexity, stabilizer drug alone” value [5] was “do not produce any change”, the “concentration effective in stabilizing lipidic bilayers” value [1] was 5 µM and the “lipidic particles formation and liposomal aggregation, simultaneous incubation with chlorpromazine” value [1] was “there were not lipidic particles formation neither liposomal aggregation”. The “reaction of stabilized liposomes with H308 monoclonal antibody” value [1] was “do not react with H308 monoclonal antibody”, the “reversion of lipidic particles and cellular aggregation caused by chlorpromazine” value (Ag4 mouse myeloma cells [6]) was “reverted” and the “development of mice pathology induced by H308 monoclonal antibody” value (BALB/c female mice [7]; as chlorhydrate, 1 mg/Kg intraperitoneal each 24 hs, two months) was “results similar to those described with chloroquine”. For the same molecule, the therapeutically effective quantity (BALB/c female mice [7]) was 1 mg/kg.
